Data from patent publication US10076511B2, “Bisamide derivative of dicarboxylic acid as an agent for stimulating tissue regeneration and recovery of diminished tissue function” (TREAMID GmbH, priority 2015, dated 2018).

Assays:
male C57BL/6 mice = assay: Streptozotocin-induced pancreatic lesion model; format: in vivo, mouse; parameters: The number of piconized cells per islet (pixel): unit not given here
Description: The study was performed on male C57BL/6 mice of 4 week old. Pancreatic damage was induced by intraperitoneal injection of streptozotocin at a dose of 40 mg/kg in 0.25 ml of phosphate buffer every day for 5 days [Szkudelski T. The Mechanism of Alloxan and Streptozotocin Action in B Cells of the Rat Pancreas//Physiological Research.—2001.—Vol. 50.—P. 536-546].
Treamid at a dose of 1 mg/kg was administered daily intragastrically once daily on Days 7-20 of the study.
On Days 0, 6, 10, 13, 16, 19, 21, 24, and 28 of the study, blood glucose was determined. The blood glucose level was determined after four-hour deprivation of feed with a glucometer (SencoCard glucometer, “77 Electronics Kft”, Hungary).
On Day 28 of the study, the animals were euthanized in a CO2 chamber, the pancreas was subjected to a morphological examination, and the pancreatic homogenate was studied on an enzyme-linked immunosorbent assay for common collagen and type I collagen.
For morphological study, a part of the pancreas adjacent to the spleen was fixed in 10% formalin and poured into paraffin. Deparaffined sections of the gland were stained with hematoxylin and eosin. On the sections, the area of 10 serial islets of Langerhans was determined by graphic computer analysis, and the total number of cells and the number of pyknotized cells were counted therein. Then, the number of cells per unit islet area and the percentage of the pyknotized cells were calculated.
Inflammatory cells (neutrophils, lymphocytes, macrophages) in the pancreatic tissue and their composition were studied by staining of the histological sections with hematoxylin-eosin and azur-eosin.
The level of mouse type I collagen in a […] was determined by enzyme-linked immunosorbent assay (Cusabio Biotech CO., LTD, China). The lung tissue homogenate was prepared according to the protocol of the manufacturer, Cusabio Biotech CO., LTD (China).
The level of the total collagen in the lung homogenate was determined by using a SIRCOL Collagen Assay kit (Biocolor Ltd, UK) for determining collagen by binding it to a dye and treating with an acid and a solution of pepsin, according to the manufacturer's instructions. The lung tissue homogenate was prepared according to the protocol of manufacturer's test system.

[1] = tested on: precursors for spermatogenic tissue; assay: Growth of colonies from CFU-Sp with in vitro addition of Treamid; format: cell-based, rat; details: Cells of the testes of intact rats
Description: The precursor cells of the studied organ were cultured by using an underlayer (represented by the cells of the adherent fraction) prepared in advance in a 96-well plate, as described above.
Further, a nonadherent cell fraction of spermatogenic tissue was isolated from the two groups of animals (intact animals and animals received Paclitaxel intravenously 24 hours prior to the study) and was transferred to the resulting underlayer in complete culture medium (80% DMEM, 20% FCS, L-glutamine, antibiotics, heparin) at a concentration of 2×10^5/ml. Prior to the incubation in the complete culture medium, Treamid was added at a concentrations of 1 ng/ml, 3 ng/ml, 10 ng/ml, 30 ng/ml, 100 ng/ml, 300 ng/ml and 1000 ng/ml. The incubation lasted for 7 days in a CO2 incubator at 37° C., 5% CO2 and 100% air humidity. After the incubation, the number of colony-forming units, spermatogenic (CFU-Sp)—clusters of more than 30 cells of round shape and of various diameters—was counted.
The effectiveness of Treamid was estimated by a significant increase in the number of cells giving rise to CFU-Sp in the culture with the addition of the test compound, compared to that in the control.
The direct action of Treamid on the precursors for spermatogenic tissue was studied in vitro by addition of Treamid to the cell culture at concentrations of 1, 30, 100, and 1000 ng/ml.

male Wistar rats = assay: Pair-test of sexual behavior, seasonal suppression of copulatory activity; format: in vivo, rat
Description: Seasonal suppression of reproductive activity was simulated by carrying out the experiment in the winter period (end of December). As a background group, intact animals (3 months of age) were tested in June.
The experiments were carried out on 27 male Wistar rats of reproductive age (3 months). Treamid at a dose of 5 mg/kg and reference drug Sildenafil (at a dose of 3 mg/kg) were administered intragastrically […], once daily for 15 days. The sexual activity was estimated by the pair-test of sexual behavior. The test was carried out twice: before administration and one hour after the last administration of Treamid. The rats of the control groups receiving the solvent were tested at the same time as the animals of the experimental groups.
The experiment also comprised the use of female rats in the estrus stage caused by a preliminary 4-fold injection of the Synestrel. The effectiveness of Treamid was estimated by the following indices: latency until the first mating attempt (LFM), the number of mating attempts (MN), and the number of ejaculations (EN). The obtained data were compared with those of the same animals before the administration of the tested compound and with the data of the control group (the second test).

[2] = first test, before administration, winter period
[3] = second test, one hour after last administration, Treamid 5.0 mg/kg, Sildenafil 3 mg/kg intragastrically, 15 days

**Q.** What does the source list for O=C(CCCC(=O)NCCc1ncc[nH]1)NCCc1ncc[nH]1 [Treamid]?
**A.** The area of the islet tissue (pixel) (male C57BL/6 mice; Day 28, Treamid 1 mg/kg): 635770 ± 56163• pixel; The number of piconized cells per islet (pixel) (male C57BL/6 mice; Day 28, Treamid 1 mg/kg): 1.75 ± 0.14; The total number of cells in the islet of Langerhans (×10^4) (male C57BL/6 mice; Day 28, Treamid 1 mg/kg): 109.9 ± 12.6• ×10^4; blood glucose level (mM/L) (male C57BL/6 mice; Initial level): 5.1 ± 0.1 mM/L; blood glucose level (mM/L) (male C57BL/6 mice; day 6 after the last administration of streptozotocin (before Treamid, given Days 7-20)): 10.8 ± 0.4 mM/L; blood glucose level (mM/L) (male C57BL/6 mice; day 10, Treamid 1 mg/kg intragastrically Days 7-20): 11.2 ± 0.2 mM/L; blood glucose level (mM/L) (male C57BL/6 mice; day 13, Treamid 1 mg/kg intragastrically Days 7-20): 11.6 ± 0.3*• mM/L; blood glucose level (mM/L) (male C57BL/6 mice; day 16, Treamid 1 mg/kg intragastrically Days 7-20): 10.4 ± 1.4 mM/L; blood glucose level (mM/L) (male C57BL/6 mice; day 19, Treamid 1 mg/kg intragastrically Days 7-20): 12.0 ± 0.1 mM/L; blood glucose level (mM/L) (male C57BL/6 mice; day 21, Treamid 1 mg/kg intragastrically Days 7-20): 12.1 ± 0.4*• mM/L; blood glucose level (mM/L) (male C57BL/6 mice; day 24, Treamid 1 mg/kg intragastrically Days 7-20): 12.2 ± 1.0*• mM/L; blood glucose level (mM/L) (male C57BL/6 mice; day 28, Treamid 1 mg/kg intragastrically Days 7-20): 12.6 ± 1.1 mM/L; CFU-Sp per 4 × 10^4 nuclears ([1]; Treamid 1 ng/ml): 6.83 ± 0.48 per 4 × 10^4 nuclears; CFU-Sp per 4 × 10^4 nuclears ([1]; Treamid 30 ng/ml): 6.0 ± 0.36 per 4 × 10^4 nuclears; CFU-Sp per 4 × 10^4 nuclears ([1]; Treamid 100 ng/ml): 8.50 ± 0.42 per 4 × 10^4 nuclears; CFU-Sp per 4 × 10^4 nuclears ([1]; Treamid 1000 ng/ml): 11.67 ± 1.81 per 4 × 10^4 nuclears; decrease of latency until the first mount after administration compared to before (male Wistar rats; Treamid 5 mg/kg): 1.8 times; increase of total number of mating attempts (male Wistar rats; Treamid 5 mg/kg, statistically insignificant): 1.8 times; LFM (male Wistar rats; [2]): 462.00 ± 117.81 s; the number of ejaculations, % (male Wistar rats; [2]): 0%; the number of mounts, abs. (male Wistar rats; [2]): 3.67 ± 1.34 abs.; LFM, sec (male Wistar rats; [3]): 251.33 ± 103.86♦ sec; the number of mounts, abs. (male Wistar rats; [3]): 6.56 ± 1.68 abs.
